Common to all, as to experiment: two-fold agar dilution MIC, Mueller-Hinton agar
Common to all, as to assay type: cell-based
(Agar dilution tests growth on a series of plates holding different concentrations.)

One assay concerns Escherichia coli Juhl. To be noted: read-out: Minimum Inhibitory Concentration. The procedure: (§1) The in vitro antibiotic activities are determined by a two-fold agar dilution method using Mueller-Hinton agar, 10 ml per Petri dish. The agar is inoculated with one loopful (0.001 ml loop) of a 1:10 dilution of a 24 hour broth culture of the indicated test organism and incubated at 37° C. for 24 hours. Appropriate fortimicins are used as control antibiotics. The activities, listed in the following Table I, minimum inhibitory concentrations(MIC) are expressed in mcg/ml.

Assay [1] has as its system Streptoccocus faecalis 10541. To be noted: read-out: Minimum Inhibitory Concentration. The procedure: as §1
For another assay, the system named is Providencia 1577. To be noted: read-out: Minimum Inhibitory Concentration. As for the experimental part:
as §1

For assay [2], the system named is Staphyloccocus aureus Smith. To be noted: Staphylococcus aureus, read-out: Minimum Inhibitory Concentration. The procedure: as §1
A further assay has as its system Shigella sonnei 9290. To be noted: 37° C., 24 hours, read-out: Minimum Inhibitory Concentration. As for the experimental part:
as §1

The test system of assay [3] is Enterobacter aerogenes 13048. To be noted: read-out: Minimum Inhibitory Concentration. The procedure:
as §1

In a further assay the test system is Proteus vulgaris JJ. To be noted: read-out: Minimum Inhibitory Concentration. As for the experimental part: as §1
The test system of assay [4] is Pseudomonas aeruginosa KY 8512. To be noted: read-out: Minimum Inhibitory Concentration. The procedure:
as §1

Assay [5] relates to Proteus mirabilis Fin. #9. To be noted: read-out: Minimum Inhibitory Concentration. The procedure: as §1
Assay [6] deals with Pseudomonas aeruginosa 209. To be noted: read-out: Minimum Inhibitory Concentration. As for the experimental part: as §1
Assay [7] has as its system Pseudomonas aeruginosa KY 8516. To be noted: read-out: Minimum Inhibitory Concentration. As for the experimental part: as §1
Assay [8] has as its system Klebsiella pneumoniae 10031. To be noted: read-out: Minimum Inhibitory Concentration. As for the experimental part:
as §1

The next assay relates to Serratia marcescens 4003. To be noted: read-out: Minimum Inhibitory Concentration. The procedure:
as §1

Assay [9] relates to Salmonella typhimurium Ed #9. To be noted: Salmonella enterica, read-out: Minimum Inhibitory Concentration. The procedure:
as §1

The subject of assay [10] is Pseudomonas aeruginosa 27853. To be noted: read-out: Minimum Inhibitory Concentration. The procedure:
as §1

Assay [11] has as its system Escherichia coli BL 3676(Res). To be noted: read-out: Minimum Inhibitory Concentration. As for the experimental part:
as §1

Assay [12] deals with Pseudomonas aeruginosa BMH #10. To be noted: read-out: Minimum Inhibitory Concentration. The procedure: as §1
Where [13] appears, read: Escherichia coli Juhl, agar dilution, 37° C., 24 hours.
The mark [14] stands for this setting: Streptoccocus faecalis 10541, agar dilution, 37° C., 24 hours.
[15] abbreviates: Providencia 1577, agar dilution, 37° C., 24 hours.
Setting [16] is: Staphyloccocus aureus Smith, agar dilution, 37° C., 24 hours.
Where [17] appears, read: Klebsiella aerogenes, Enterobacter aerogenes 13048, agar dilution, 37° C., 24 hours.
Setting [18] is: Proteus vulgaris JJ, agar dilution, 37° C., 24 hours.
[19] abbreviates: KY8512, Pseudomonas aeruginosa KY 8512, agar dilution, 37° C., 24 hours.
Where [20] appears, read: Proteus mirabilis Fin. #9, agar dilution, 37° C., 24 hours.
The mark [21] stands for this setting: Pseudomonas aeruginosa 209, agar dilution, 37° C., 24 hours.
[22] abbreviates: KY8516, Pseudomonas aeruginosa KY 8516, agar dilution, 37° C., 24 hours.
The mark [23] stands for this setting: Klebsiella pneumoniae 10031, agar dilution, 37° C., 24 hours.
Where [24] appears, read: Serratia marcescens 4003, agar dilution, 37° C., 24 hours.
[25] abbreviates: Salmonella typhimurium Ed #9, agar dilution, 37° C., 24 hours.
[26] abbreviates: Pseudomonas aeruginosa BMH #10, agar dilution, 37° C., 24 hours.
Setting [27] is: Pseudomonas aeruginosa, KY8512, 24 h.
The mark [28] stands for this setting: Pseudomonas aeruginosa, 27853, 24 h.
[29] abbreviates: Escherichia coli BL 3676(Res), agar dilution, 37° C., 24 hours.

Where a name gives a salt, the structure may show the parent alone. Read-outs that look alike come from different tables or passages of the source.

Regarding `CC(N)C1CCC(N)C(OC2C(N)CC(O)C(N(C)C(=O)CN)C2O)O1` (stereo not shown) [2-Deoxy-3-O-demethylfortimicin A . 4HCl, 2-Deoxy-3-O-Demethylfortimicin A tetrahydrochloride], the MIC in the assay on Escherichia coli Juhl (setting [13]) was determined as 6.2 µg/mL; in assay [1] (setting [14]), 50 µg/mL; in the assay with Providencia 1577 (setting [15]), 1.56 µg/mL; in assay [2] (setting [16]) it was 0.39 µg/mL; in the assay with Shigella sonnei 9290, 12.5 µg/mL; in assay [3] (setting [17]), 3.1 µg/mL. Moreover, the MIC in the assay on Proteus vulgaris JJ (setting [18]) was 3.1 µg/mL; in [4] (setting [19]), 3.1 µg/mL; in [5] (setting [20]), 3.1 µg/mL; in assay [6] (setting [21]), 100 µg/mL; in assay [7] (setting [22]), 100 µg/mL; in assay [8] (setting [23]) it was 3.1 µg/mL. Moreover, the MIC came to 3.1 µg/mL in the assay with Serratia marcescens 4003 (setting [24]); 1.56 µg/mL in assay [9] (setting [25]); 6.2 µg/mL in assay [10] (Pseudomonas aeruginosa 27853, agar dilution, 37° C., 24 hours); 12.5 µg/mL in assay [11] (Escherichia coli, 24 h); 0.78 µg/mL in assay [12] (setting [26]).

For the compound `COC1CC(N)C(OC2OC(C(C)N)CCC2N)C(O)C1N(C)C(=O)CN` (stereo not shown) [2-Deoxyfortimicin A . 4 HCl, 2-Deoxyfortimicin A tetrahydrochloride], the MIC in the assay with Escherichia coli Juhl (setting [13]) was found to be 6.2 µg/mL; in assay [1] (setting [14]), 50 µg/mL; in the assay with Providencia 1577 (setting [15]), 3.1 µg/mL; in assay [2] (setting [16]), 0.78 µg/mL; with Shigella sonnei 9290, 12.5 µg/mL; in [3] (setting [17]), 3.1 µg/mL. For the same compound, the MIC with Proteus vulgaris JJ (setting [18]) worked out at 3.1 µg/mL; in assay [4] (setting [27]) it was 12.5 µg/mL; in assay [5] (setting [20]) it was 6.2 µg/mL; in [6] (setting [21]) it was 100 µg/mL; in assay [7] (setting [22]) it was 50 µg/mL; in [8] (setting [23]), 1.56 µg/mL. In addition, the MIC with Serratia marcescens 4003 (setting [24]) is 3.1 µg/mL; in assay [9] (setting [25]) it was 1.56 µg/mL; in [10] (setting [28]), 12.5 µg/mL; in [11] (setting [29]) it was 25 µg/mL; in assay [12] (setting [26]), 0.78 µg/mL.

For the compound `CC(N)C1CCC(N)C(OC2C(N)C(O)C(O)C(N(C)C(=O)CN)C2O)O1` (stereo not shown) [3-O-Demethylfortimicin A . 4HCl, 3-O-demethylfortimicin A tetrahydrochloride], the MIC was 2.1 µg/mL with Escherichia coli Juhl (setting [13]); 17 µg/mL in [1] (setting [14]); 1.1 µg/mL in the assay with Providencia 1577 (setting [15]); 0.54 µg/mL in assay [2] (setting [16]); 4.3 µg/mL in the assay with Shigella sonnei 9290; 2.1 µg/mL in assay [3] (setting [17]). For the same compound, the MIC with Proteus vulgaris JJ (setting [18]) amounted to 2.1 µg/mL; in [4] (setting [19]), 2.1 µg/mL; in assay [5] (setting [20]), 2.1 µg/mL; in assay [6] (setting [21]), 69 µg/mL; in [7] (setting [22]), 69 µg/mL; in assay [8] (setting [23]), 1.1 µg/mL. The MIC in the assay on Serratia marcescens 4003 (setting [24]) came out at 4.3 µg/mL; in [9] (setting [25]) it was 1.1 µg/mL; in assay [11] (setting [29]), 8.6 µg/mL; in assay [12] (setting [26]), 0.27 µg/mL.

As to `COC1C(O)C(N)C(OC2OC(C(C)N)CCC2N)C(O)C1N(C)C(=O)CN` (stereo not shown) [Fortimicin A . 4HCl, fortimicin A tetrahydrochloride], the MIC with Escherichia coli Juhl (Escherichia coli, 24 h) came to 6.2 µg/mL; in [1] (24 h), 50 µg/mL; in the assay with Providencia 1577 (Providencia, 1577, 24 h), 6.2 µg/mL; in assay [2] (24 h) it was 0.78 µg/mL; in the assay with Shigella sonnei 9290, 12.5 µg/mL; in assay [3] (Klebsiella aerogenes, 13048, 24 h) it was 3.1 µg/mL. For the same compound, the MIC turned out to be 3.1 µg/mL in the assay with Proteus vulgaris JJ (Proteus vulgaris, 24 h); 12.5 µg/mL in assay [4] (setting [27]); 6.2 µg/mL in [5] (Proteus mirabilis, 24 h); 100 µg/mL in [6] (Pseudomonas aeruginosa, 209, 24 h); 100 µg/mL in assay [7] (Pseudomonas aeruginosa, KY8516, 24 h); 3.1 µg/mL in [8] (Klebsiella pneumoniae, 10031, 24 h). Besides, the MIC in the assay on Serratia marcescens 4003 (Serratia marcescens, 4003, 24 h) is 3.1 µg/mL; in assay [9] (TYPHIMURIUM, 24 h) it was 1.56 µg/mL; in assay [10] (setting [28]), 12.5 µg/mL; in assay [11] (Escherichia coli, 24 h), 25 µg/mL; in assay [12] (Pseudomonas aeruginosa, 24 h), 0.78 µg/mL.

The values are drawn from patent publication US4251516A, “2-Deoxy-3-O-Demethylfortimicins” (Abbott Laboratories, priority 1979, dated 1981).
